Data: publication PMC9328652, “A novel class of fast‐acting antimalarial agents: Substituted 15‐membered azalides” (British Journal of Pharmacology, 2020)
pIC50: −log10 of the molar value.

Tests used:
[1] = system: Plasmodium falciparum W2 (chloroquine/pyrimethamine resistant); set-up: method as in Pesic et al. ([2012]); conditions: 72 h of incubation; ref Pesic et al. ([2012]); cited from earlier work
[2] = system: Plasmodium falciparum 3D7A (sensitive); set-up: method as in Pesic et al. ([2012]); conditions: 72 h of incubation; ref Pesic et al. ([2012]); cited from earlier work
human erythrocytes = assay: Accumulation and retention in human erythrocytes; assay type: in vitro ADME; conditions: after washout
Method: The human biological samples were sourced ethically, and their research use was in accord with the terms of the informed consents under an IRB/EC approved protocol. Human erythrocytes were isolated from fresh whole blood. Blood cells were removed from the plasma by centrifugation at 1,650 g and 4°C for 15 min. The pellet was re‐suspended in saline and centrifuged at 3,000 g and at room temperature for 10 min. Supernatant and the upper part of pellet containing leukocytes were discarded. The procedure was repeated three to four times until there were no traces of leukocytes. The quality of erythrocyte isolation was determined on Sysmex SF‐3000 haematological analyser. To measure compound accumulation in cells, erythrocytes (2 × 10^9) were re‐suspended in 3‐ml RPMI 1640 (Gibco, Invitrogen) medium containing 20 μM of tested compounds and incubated at 37°C for 3 or 24 h. Cells were subsequently washed twice in ice‐cold PBS (Sigma) followed by centrifugation at 3,000 g and 4°C for 10 min. The cells were lysed by freezing in 0.5% Triton X‐100 (Sigma) in deionized water. […] Concentrations in lysates were determined by LC–MS/MS. […] To determine intracellular concentration, measured concentration in lysates was normalized to the volume of erythrocyte pellet in samples.

[3] = system: bronchial smooth muscle cells (BSMC); assay: Accumulation and retention in human primary cells, BSMC; assay type: in vitro ADME; conditions: mean (SD)
Method: Accumulation and retention in human primary cells was determined as described in detail previously (Stepanic et al., [2011]). Briefly, normal human bronchial epithelial cells (NHBE, CC‐2541, Lonza), normal human lung fibroblasts (NHLF, CC‐2512, Lonza), and bronchial smooth muscle cells (BSMC, CC‐2576, Lonza) were cultivated according to the protocols of the suppliers. Human polymorphonuclear cells (PMN) and monocytes from healthy volunteers were isolated from buffy coats. Monocytes were isolated by negative selection on magnetic separator. Monocyte‐derived macrophages (MDM) were obtained by cultivating monocytes with 5 ng·ml^−1 rhGMCSF for 10 days. To determine compound accumulation cells were incubated with 3–10 μM of compounds in their corresponding culture medium for 3 h at 37°C in 5% CO2, washed, and lysed. To measure cellular retention of compounds, after being washed, drug‐loaded cells were incubated in fresh medium for 3 h, washed, and lysed. Compound concentrations were determined by HPLC–MS/MS analysis and expressed as % of azithromycin measurements.

CC[C@H]1OC(=O)[C@H](C)[C@@H](O[C@H]2C[C@@](C)(OC)[C@@H](O)[C@H](C)O2)[C@H](C)[C@@H](O[C@@H]2O[C@H](C)C[C@H](N(C)C)[C@H]2O)[C@](C)(O)C[C@@H](C)CN(C)[C@H](C)[C@@H](O)[C@]1(C)O [Azithromycin, reference compound]
pIC50 [1]: 5.57 | pIC50 [2]: 4.94 | initially accumulated amount retained in the erythrocytes (human erythrocytes): 10%

CC[C@H]1OC(=O)[C@H](C)[C@@H](O[C@H]2C[C@@](C)(OC)[C@@H](O)[C@H](C)O2)[C@H](C)[C@@H](O[C@@H]2O[C@H](C)C[C@H](N(C)C)[C@H]2O)[C@](C)(O)C[C@@H](C)CN(CCCNc2ccnc3cc(Cl)ccc23)[C@H](C)[C@@H](O)[C@]1(C)O [Compound 1]
accumulation ([3]; 3 h): 148 (77) % azithromycin | retention ([3]; 3 h in fresh medium): 118 (19) % azithromycin
